In patent US20250129069A1, “TRIAZOLO WRN INHIBITORS” (Nimbus Wadjet, Inc., priority 2023, published 2025):
Where two headings read alike, the source gives them in different places.

Legend:
[1] = biological target: human Werner helicase (WRN, amino acids 517-1235 with L1074F point mutation) (Homo sapiens (Human), UniProt Q14191, L1074F); assay: WRN (BV08) ADP-Glo assay; type: biochemical; conditions: human WRN (aa 517-1235, L1074F), read-out: ADP-Glo_hWRN_IC50
Procedure, shortened: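 Untagged WRN 517-1235 (L1074F), Sf9/baculovirus-expressed, 0.15 nM, preincubated 15 min with compound, then 5 μM ATP and 0.1 nM annealed DNA duplex added; 60 min at 25 °C in Bicine pH 7.5, 1 mM MgCl2, 1% DMSO. ADP-Glo luminescence; % inhibition vs DMSO and 20 μM NSC-617145 controls, four-parameter IC50 fit.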

[2] = test system: p21 induction in HCT 116 cells; assay: p21 induction in cells (In-Cell Western, p21/GAPDH ratio); type: cell-based; conditions: 24 h compound incubation, read-out: p21_EC50
Procedure, shortened: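 HCT 116 cells treated 24 h at 37° C with 11-point, 2-fold dilutions typically from 10 μM, in duplicate. Fixed cells co-stained for p21 (800 nm) and GAPDH (700 nm) by In-Cell Western. p21/GAPDH ratio normalised between DMSO and reference WRN inhibitor controls, and EC50 obtained by nonlinear regression.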

Sequence of human Werner helicase (WRN, amino acids 517-1235 with L1074F point mutation) (Q14191 other isoform, or with tags, fused parts or gaps L1074F (already in the parent)): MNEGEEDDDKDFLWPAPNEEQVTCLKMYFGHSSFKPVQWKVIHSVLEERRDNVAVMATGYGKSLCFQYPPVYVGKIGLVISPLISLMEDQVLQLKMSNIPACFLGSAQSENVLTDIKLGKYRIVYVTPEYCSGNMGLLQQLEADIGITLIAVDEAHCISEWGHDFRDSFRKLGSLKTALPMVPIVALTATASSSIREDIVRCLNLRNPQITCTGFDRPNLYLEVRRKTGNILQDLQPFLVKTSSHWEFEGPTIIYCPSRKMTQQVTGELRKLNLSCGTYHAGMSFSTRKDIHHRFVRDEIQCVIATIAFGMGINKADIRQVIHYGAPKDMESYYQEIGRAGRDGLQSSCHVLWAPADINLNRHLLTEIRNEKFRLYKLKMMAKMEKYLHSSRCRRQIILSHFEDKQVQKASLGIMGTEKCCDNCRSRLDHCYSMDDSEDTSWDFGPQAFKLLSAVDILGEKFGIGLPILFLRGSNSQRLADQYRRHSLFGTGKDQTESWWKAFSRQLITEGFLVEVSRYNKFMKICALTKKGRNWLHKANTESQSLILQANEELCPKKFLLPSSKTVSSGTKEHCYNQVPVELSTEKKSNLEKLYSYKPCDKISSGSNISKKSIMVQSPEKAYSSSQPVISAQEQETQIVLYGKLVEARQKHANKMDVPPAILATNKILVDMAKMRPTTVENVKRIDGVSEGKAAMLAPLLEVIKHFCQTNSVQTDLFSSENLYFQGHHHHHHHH

CCc1c(N2CCN(C(=O)c3c(OC)ncc(C)c3O)CC2)c(=O)c2nn(-c3ccnc(OC)c3)nc2n1CC(=O)NC1CC2(C1)CC(F)(F)C2 [Compound I-104, N-{6,6-difluorospiro[3.3]heptan-2-yl}-2-{5-ethyl-6-[4-(4-hydroxy-2-methoxy-5-methylpyridine-3-carbonyl)piperazin-1-yl]-2-(2-methoxypyridin-4-yl)-7-oxo-2H,4H,7H-[1,2,3]triazolo[4,5-b]pyridin-4-yl}acetamide]
IC50 [1]: 50 to 100 nM | EC50 ([2]; Homo sapiens): > 5000 nM

CCc1c(N2CCN(C(=O)c3c(OC)ncc(C)c3O)[C@H]3CC[C@@H]32)c(=O)c2nn(-c3ccnc(OC)c3)nc2n1CC(=O)NC12CC(C(F)(F)F)(C1)C2 [Compound I-117, 2-{5-ethyl-6-[(1S,6S)-5-(4-hydroxy-2-methoxy-5-methylpyridine-3-carbonyl)-2,5-diazabicyclo[4.2.0]octan-2-yl]-2-(2-methoxypyridin-4-yl)-7-oxo-2H,4H,7H-[1,2,3]triazolo[4,5-b]pyridin-4-yl}-N-[3-(trifluoromethyl)bicyclo[1.1.1]pentan-1-yl]acetamide]
IC50 [1]: 5 to 50 nM | EC50 ([2]; Homo sapiens): ≤ 500 nM

CCc1c(N2CCN(C(=O)c3c(O)ccc4ncoc34)[C@H]3CC[C@@H]32)c(=O)c2nn(-c3ccnc(OC)c3)nc2n1CC(=O)NC12CC(C(C)C)(C1)C2 [Compound I-137, 2-{5-ethyl-6-[(1S,6S)-5-(6-hydroxy-1,3-benzoxazole-7-carbonyl)-2,5-diazabicyclo[4.2.0]octan-2-yl]-2-(2-methoxypyridin-4-yl)-7-oxo-2H,4H,7H-[1,2,3]triazolo[4,5-b]pyridin-4-yl}-N-[3-(propan-2-yl)bicyclo[1.1.1]pentan-1-yl]acetamide]
IC50 [1]: ≤ 5 nM | EC50 ([2]; Homo sapiens): ≤ 500 nM

CCc1c(N2CCN(C(=O)c3ncnc(C)c3O)[C@H]3CC[C@@H]32)c(=O)c2nn(-c3ccnc(OC)c3)nc2n1CC(=O)NC1CCC2(CCC2)C1 (stereo partly drawn) [Compound I-66, 2-{5-ethyl-6-[(1S,6S)-5-(5-hydroxy-6-methylpyrimidine-4-carbonyl)-2,5-diazabicyclo[4.2.0]octan-2-yl]-2-(2-methoxypyridin-4-yl)-7-oxo-2H,4H,7H-[1,2,3]triazolo[4,5-b]pyridin-4-yl}-N-{spiro[3.4]octan-6-yl}acetamide]
IC50 [1]: 5 to 50 nM | EC50 ([2]; Homo sapiens): ≤ 500 nM

CCOc1ncc(C)c(O)c1C(=O)N1CCN(c2c(CC)n(CC(=O)NC34CC(C(C)C)(C3)C4)c3nn(-c4ccnc(OC)c4)nc3c2=O)CC1 [Compound I-98, 2-{6-[4-(2-ethoxy-4-hydroxy-5-methylpyridine-3-carbonyl)piperazin-1-yl]-5-ethyl-2-(2-methoxypyridin-4-yl)-7-oxo-2H,4H,7H-[1,2,3]triazolo[4,5-b]pyridin-4-yl}-N-[3-(propan-2-yl)bicyclo[1.1.1]pentan-1-yl]acetamide]
IC50 [1]: 5 to 50 nM | EC50 ([2]; Homo sapiens): ≤ 500 nM

CCc1c(N2CCN(C(=O)c3ncnc(C)c3O)[C@H]3CC[C@@H]32)c(=O)c2nn(C3=CCO[C@H](C)C3)nc2n1CC(=O)NC12CC(C3CC3)(C1)C2 (single isomer, unassigned) [Compound I-181]
IC50 [1]: 5 to 50 nM | EC50 [2]: ≤ 500 nM

CCc1c(N2CCN(C(=O)c3cc4cc[nH]c4nc3OC)[C@H]3CC[C@@H]32)c(=O)c2nn(C3=CCOCC3)nc2n1CC(=O)NC12CC(C(C)C)(C1)C2 [Compound I-157, 2-[2-(3,6-dihydro-2H-pyran-4-yl)-5-ethyl-6-[(1S,6S)-5-{6-methoxy-1H-pyrrolo[2,3-b]pyridine-5-carbonyl}-2,5-diazabicyclo[4.2.0]octan-2-yl]-7-oxo-2H,4H,7H-[1,2,3]triazolo[4,5-b]pyridin-4-yl]-N-[3-(propan-2-yl)bicyclo[1.1.1]pentan-1-yl]acetamide]
IC50 [1]: 5 to 50 nM | EC50 ([2]; Homo sapiens): ≤ 500 nM
